For 4 compounds, Ki results are on record in BindingDB's records for doi:10.1016/j.ejmech.2010.03.048 (2010).

Sequence of Sigma non-opioid intracellular receptor 1 (Q60492 whole entry): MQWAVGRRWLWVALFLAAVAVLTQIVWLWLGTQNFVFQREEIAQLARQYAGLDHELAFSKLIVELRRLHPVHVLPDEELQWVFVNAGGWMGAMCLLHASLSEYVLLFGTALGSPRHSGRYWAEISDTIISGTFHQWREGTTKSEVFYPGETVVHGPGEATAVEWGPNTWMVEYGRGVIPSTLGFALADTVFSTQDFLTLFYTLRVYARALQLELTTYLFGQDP

The test addresses Sigma non-opioid intracellular receptor 1 (Cavia porcellus, UniProt Q60492). Briefly: Displacement of [3H](+)-pentazocine from sigma 1 receptor in guinea pig brain membrane. A general note: Loss of bound radioactivity is the signal in a displacement assay; it reports binding, not function.
For the compound `OCC[C@H]1Cc2ccccc2C2(CCN(CCCc3ccccc3)CC2)O1` [(R)-2-(1'-(3-phenylpropyl)spiro[isochroman-1,4'-piperidine]-3-yl)ethanol], affinity was put at a Ki of 68 nM.
Turning to `OCC[C@H]1Cc2ccccc2C2(CCN(CC3CCCCC3)CC2)O1` [(R)-2-(1'-(cyclohexylmethyl)spiro[isochroman-1,4'-piperidine]-3-yl)ethanol], the affinity, expressed as Ki, was 9 nM.
The result for `OCC[C@H]1Cc2ccccc2C2(CCN(Cc3ccccc3)CC2)O1` [(R)-2-(1'-benzylspiro[isochroman-1,4'-piperidine]-3-yl)ethanol] reads 48 nM.
In turn, `OCC[C@@H]1Cc2ccccc2C2(CCN(Cc3ccccc3)CC2)O1` [(S)-2-(1'-benzylspiro[isochroman-1,4'-piperidine]-3-yl)ethanol] had a Ki of 10 nM.

In general, Ki refers to the dissociation constant of the complex between target and ligand, obtained from inhibition or displacement.
